Key:
IL-10 promoter [1] = assay: ChIP of Sp1 and STAT3 binding to the IL-10 promoter in situ in stimulated BMMφ; type: cell-based, mice
Description: BMMφ were stimulated with medium (open bar), E-IgG (dotted bar), LPS (solid bar), or LPS+E-IgG (striped bar) for 40 min. Some cells were pretreated with PD98059 (10 μM). Immunoprecipitations were carried out using either Sp1 or STAT3 specific Abs. A. Conventional RT-PCR was carried out using primers which amplify the putative Sp1 or STAT3 binding sites of the IL-10 promoter respectively. B. Real time PCR analysis of samples obtained in A. Samples were normalized to input DNA controls.
(§1) FIG. 22 is a graph showing Inhibition of histone modifications by blocking ERK. BMMφ were pre-treated with PD98059 (15 μM) (solid bars) or drug vehicle (open bars) for 1 hour and then stimulated with IC plus LPS (10 ng/mL). Cross-linked chromatin fragments were immunoprecipitated with antibody to phosphorylated histone H3 at Ser 10 or antibody to Sp1. The DNA was purified and analyzed for the presence of IL-10 promoter sequences corresponding to nucleosome −2 by QRT-PCR. The data were plotted graphically as the percentage change relative to drug vehicle (IC/LPS) at 30 min post-stimulation for histone H3 phosphorylation, and at 45 min post-stimulation for Sp1 recruitment. One representative from two independent experiments is presented.
Chromatin immunoprecipitation (ChIP). ChIPs were carried out using the ChIP Assay kit following the manufacturer's protocol (Upstate USA, Inc., Lake Placid, N.Y.). […]

IL-10 promoter [2] = assay: ChIP of histone H3 phosphorylation at the IL-10 promoter in stimulated BMMφ; type: cell-based, mice
Description: BMMφ were stimulated with medium (open bars), LPS (solid bars) or E-IgG+LPS (striped bars) for 15 minutes (A), or the indicated times (B) and ChIP assays were carried out as described in Materials and Methods. Immunoprecipitations utilized antibodies specific to phospho-H3 (left panel) or acetyl-H3 (right panel). A. conventional RT-PCR and B. real time PCR were carried out using IL-10 promoter or IL-12p40 promoter specific primers. For real time PCR, samples were normalized to input DNA controls.
Cells were pretreated with PD98059 (10 μM), SB203580 (1 μM) or medium for 30 min then stimulated with medium (open bar), IgG-OVA (dotted bar), LPS (solid bar), or both (striped bars) for 40 min. ChIP analysis was carried out using a phospho-H3 specific Ab. A. Conventional RT-PCR was carried out using IL-10 promoter or IL-12p40 promoter specific primers. B. Real time PCR analysis of samples obtained in A. Samples were normalized to input DNA controls.
as §1
Chromatin immunoprecipitation (ChIP). ChIPs were carried out using the ChIP Assay kit following the manufacturer's protocol (Upstate USA, Inc., Lake Placid, N.Y.). Briefly, 1×10^6 BMMφ were plated overnight in 6-well plates. Cells were stimulated as described in Figure Legends then fixed for 10 min at 37° C. in paraformaldehyde (1% final concentration). […]

[3] = test system: bone marrow derived macrophages (BMMφ); assay: Cytokine ELISA on supernatants of stimulated bone marrow derived macrophages (LPS ± E-IgG)

Sp1 recruitment to IL-10 promoter nucleosome −2 (ChIP, QRT-PCR) (IL-10 promoter [1]; BMMφ pre-treated with PD98059 15 μM for 1 hour, IC plus LPS 10 ng/mL, 45 min post-stimulation, relative to drug vehicle): dramatically reduced
Sp1 and STAT3 transcription factor binding to the IL-10 promoter in situ (ChIP) (IL-10 promoter [1]; BMMφ pretreated with PD98059 10 μM, LPS + E-IgG for 40 min): reversed
Structure (SMILES): COc1cccc(-c2cc(=O)c3ccccc3o2)c1N [PD98059]
histone H3 Ser 10 phosphorylation at IL-10 promoter nucleosome −2 (ChIP, QRT-PCR) (IL-10 promoter [2]; BMMφ pre-treated with PD98059 15 μM for 1 hour, IC plus LPS 10 ng/mL, 30 min post-stimulation, relative to drug vehicle): substantial loss
histone H3 phosphorylation at the IL-10 promoter induced by immune complex (ChIP) (IL-10 promoter [2]; BMMφ pretreated 30 min with PD98059 10 μM or SB203580 1 μM, then IgG-OVA + LPS for 40 min): completely abrogated
IL-10 secretion (ELISA) ([3]; BMMφ pretreated 30 min with PD98059 10 μM, SB203580 1 μM or JNK inhibitory peptide 1 μM, then LPS 10 ng/ml ± E-IgG, supernatants after 20 h): substantial inhibition
IL-12 (p40) production (ELISA) ([3]; BMMφ pretreated 30 min with inhibitor, then LPS 10 ng/ml ± E-IgG, 20 h): actually increased
superinduction (augmentation) of IL-10 production caused by immune complexes ([3]; BMMφ, LPS 10 ng/ml + E-IgG versus LPS alone, 20 h, inhibitor pretreatment or 100 nM siRNA): appeared to prevent

From US7524487B2, “Compositions and methods for modulating interleukin-10” (University of Maryland, priority 2005, dated 2009)
